Experimental data: patent US11564912B2, “Methods for treating irritable bowel syndrome (IBS)” (Salix Pharmaceuticals, Inc., priority 2008, dated 2023)
“And” between values parts separate entries of the source, which are not always exact repeats. Identical values can stand only once.

Tests used:
subjects with dIBS = experiment: Study of rifaximin BID in subjects with dIBS: adequate relief of IBS symptoms and bloating; type: in vivo, human; settings: for Percentage of Subjects with Adequate Relief of Bloating Symptom / Percentage of Subjects with Adequate Relief of IBS Symptoms: RFX 550 mg BID 14 days, N = 191, ITT, at least two of the final three weeks of treatment phase (Weeks 1 to 4); for Adequate Relief of Bloating, Post Treatment: Failures / Adequate Relief of Bloating, Post Treatment: Success / Adequate Relief of Bloating, Post Treatment: Failure: RFX 550 2 w (N = 54); for Patients with adequate relief of bloating / Patients with adequate relief of global IBS symptoms: rifaximin 550 mg twice daily 14 days
Protocol: This example relates to a study of rifaximin in subjects with dIBS. […] There were two measures of efficacy assessed. Subjects were questioned on the relief of overall IBS symptoms and bloating. […] The analyses defined success as a “yes” response to questions regarding adequate relief.
All subpopulations in the study responded to therapy. Baseline severity was determined using 7-point Lickert scales during screening for Abdominal Pain/Discomfort and Bloating, and the number, type (normal, hard, loose) and urgency of bowel movements.
Duration of effect was assessed in a follow-up period. Subjects that responded in the 4 week treatment period were followed for an additional 3 months.
The effect of treatment on the percentage of subjects who reported adequate relief of IBS and bloating symptoms for at least two of the final three weeks during the treatment phase (Weeks 1 to 4) is shown in Tables 3-5 and FIGS. 4-6 below.
Two measures of efficacy were assessed independently. The first was the proportion of subjects who provided a ‘yes’ response to the weekly SGA question: “In the past 7 days, have you had adequate relief of your IBS symptoms? (yes/no)”. The second endpoint was the proportion of subjects who provide a ‘yes’ response to the weekly individual symptom question: “In the past 7 days, have you had adequate relief of your symptom of bloating? (yes/no)”. Durability was based on the proportion of subjects that had adequate relief over the entire treatment phase.
It is reported herein that the severity of baseline symptoms of abdominal pain and bloating influenced the response to rifaximin treatment. The co-primary endpoints in this analysis assessed weekly yes/no responses to questions regarding adequate relief of global IBS symptoms and IBS-associated bloating. Severity of baseline IBS symptoms was evaluated as a potential confounder of clinical response and was categorized as mild/moderate or severe based on a mean score of ≤4 vs. >4 (on a 7-point scale) for bloating and abdominal pain.
The Weekly yes/no responses to questions regarding adequate relief of global IBS symptoms and IBS-associated bloating were assessed. Clinical response was defined as adequate relief for 2 of the final 3 treatment weeks (wk 2, 3, or 4). Severity of baseline IBS symptoms was evaluated as a potential confounder of clinical response and was categorized as mild/moderate or severe based on a mean score of ≤4 versus >4 (on a 7-point scale (0=not bothersome; 6=very bothersome)) for bloating and abdominal pain.

[1] = oral administration; Descombe et al. 1994; cited from earlier work
[2] = RFX 550 mg BID vs placebo, ITT, listed as RFX
[3] = RFX 550 mg BID, responders followed through week 16
[4] = patients with mild/moderate abdominal pain at baseline
[5] = patients with mild/moderate bloating at baseline

(2S,16Z,18E,20S,21S,22R, 23R,24R,25S,26S,27S,28E)-5,6,21,23,25 Pentahydroxy-27-methoxy -2,4,11,16,20,22,24,26-octamethyl-2,7-(epoxypentadeca-(1,11,13)trienimino)benzofuro (4,5-e) pyrido(1,2,-a) benzimidazole-1,15(2H)-dione,25-acetate [Rifaximin]
Adequate Relief of IBS Symptoms at the End of the Treatment Phase: Success (subjects with dIBS; Male, RFX 550 2 w (N = 191)): 29 (53.7%) n (%)
odds ratio, Adequate Relief of Bloating at the End of the Treatment Phase (subjects with dIBS; Male, RFX 550 2 w vs. PBO): Comparison of RFX 550 2 w vs. PBO p-value: 0.0802, odds ratio: 2.148 (0.912, 5.057)
odds ratio, Adequate Relief of IBS Symptoms at the End of the Treatment Phase (subjects with dIBS; Male, RFX 550 2 w vs. PBO): Comparison of RFX 550 2 w vs. PBO p-value: 0.0326, odds ratio: 2.511 (1.079, 5.842)
Adequate Relief of Bloating at the End of the Treatment Phase: Failure (subjects with dIBS; Male, RFX 550 4 w (N = 98)): 16 (72.7%) n (%)
Adequate Relief of Bloating at the End of the Treatment Phase: Success (subjects with dIBS; Male, RFX 550 4 w (N = 98)): 6 (27.3%) n (%)
Adequate Relief of IBS Symptoms at the End of the Treatment Phase: Failure (subjects with dIBS; Male, RFX 550 4 w (N = 98)): 15 (68.2%) n (%)
Adequate Relief of IBS Symptoms at the End of the Treatment Phase: Success (subjects with dIBS; Male, RFX 550 4 w (N = 98)): 7 (31.8%) n (%)
Percentage of Subjects with Adequate Relief of Bloating Symptom (subjects with dIBS): 46%
Percentage of Subjects with Adequate Relief of IBS Symptoms (subjects with dIBS): 52%
Percentage of Subjects with Adequate Relief of Bloating Symptom (subjects with dIBS; listed as RFX): 46.1%
Percentage of Subjects with Adequate Relief of IBS Symptoms (subjects with dIBS; listed as RFX): 52.4%
Odds Ratio Estimate, Number of Weeks with Adequate Relief of Bloating Symptoms (subjects with dIBS; RFX 550 mg BID vs placebo, ITT): 1.57
Odds Ratio Estimate, Number of Weeks with Adequate Relief of IBS Symptoms (subjects with dIBS; RFX 550 mg BID vs placebo, ITT): 1.54
Odds Ratio Estimate, Adequate Relief of Bloating Symptom (subjects with dIBS; [2]): 1.6 and 1.58
Odds Ratio Estimate, Adequate Relief of IBS Symptoms (subjects with dIBS; [2]): 1.6
Adequate relief of IBS symptoms during post-treatment follow-up (subjects with dIBS; [3]): 62.3%
Adequate relief of the symptom of bloating during post-treatment follow-up (subjects with dIBS; [3]): 59.3%
Adequate Relief of Bloating, Post Treatment: Failures (subjects with dIBS; Week 6): 5 (9.3%) n (%)
Adequate Relief of Bloating, Post Treatment: Success (subjects with dIBS; Week 6): 49 (90.7%) n (%)
odds ratio, Adequate Relief of Bloating, Post Treatment (subjects with dIBS; Week 6, RFX 550 2 w vs. PBO): Comparison of RFX 550 2 w vs. PBO p-value: 0.1303, odds ratio: 3.840
Adequate Relief of Bloating, Post Treatment: Failures (subjects with dIBS; Week 7): 9 (16.7%) n (%)
Adequate Relief of Bloating, Post Treatment: Success (subjects with dIBS; Week 7): 45 (83.3%) n (%)
odds ratio, Adequate Relief of Bloating, Post Treatment (subjects with dIBS; Week 7, RFX 550 2 w vs. PBO): Comparison of RFX 550 2 w vs. PBO p-value: 0.1311, odds ratio: 2.931
Adequate Relief of Bloating, Post Treatment: Failures (subjects with dIBS; Week 8): 7 (13.0%) n (%)
Adequate Relief of Bloating, Post Treatment: Success (subjects with dIBS; Week 8): 47 (87.0%) n (%)
odds ratio, Adequate Relief of Bloating, Post Treatment (subjects with dIBS; Week 8, RFX 550 2 w vs. PBO): Comparison of RFX 550 2 w vs. PBO p-value: 0.2858, odds ratio: 2.107
Adequate Relief of Bloating, Post Treatment: Failures (subjects with dIBS; Week 9): 15 (27.8%) n (%)
Adequate Relief of Bloating, Post Treatment: Success (subjects with dIBS; Week 9): 39 (72.2%) n (%)
odds ratio, Adequate Relief of Bloating, Post Treatment (subjects with dIBS; Week 9, RFX 550 2 w vs. PBO): Comparison of RFX 550 2 w vs. PBO p-value: 0.0814, odds ratio: 2.737
Adequate Relief of Bloating, Post Treatment: Failures (subjects with dIBS; Week 10): 15 (27.8%) n (%)
Adequate Relief of Bloating, Post Treatment: Success (subjects with dIBS; Week 10): 39 (72.2%) n (%)
odds ratio, Adequate Relief of Bloating, Post Treatment (subjects with dIBS; Week 10, RFX 550 2 w vs. PBO): Comparison of RFX 550 2 w vs. PBO p-value: 0.0217, odds ratio: 3.828
Adequate Relief of Bloating, Post Treatment: Failures (subjects with dIBS; Week 11): 19 (35.2%) n (%)
Adequate Relief of Bloating, Post Treatment: Success (subjects with dIBS; Week 11): 35 (64.8%) n (%)
odds ratio, Adequate Relief of Bloating, Post Treatment (subjects with dIBS; Week 11, RFX 550 2 w vs. PBO): Comparison of RFX 550 2 w vs. PBO p-value: 0.0398, odds ratio: 3.115
Adequate Relief of Bloating, Post Treatment: Failure (subjects with dIBS; Week 12): 18 (33.3%) n (%)
Adequate Relief of Bloating, Post Treatment: Success (subjects with dIBS; Week 12): 36 (66.7%) n (%)
odds ratio, Adequate Relief of Bloating, Post Treatment (subjects with dIBS; Week 12, RFX 550 2 w vs. PBO): Comparison of RFX 550 2 w vs. PBO p-value: 0.0596, odds ratio: 2.891
Adequate Relief of Bloating, Post Treatment: Failure (subjects with dIBS; Week 13): 21 (38.9%) n (%)
Adequate Relief of Bloating, Post Treatment: Success (subjects with dIBS; Week 13): 33 (61.1%) n (%)
odds ratio, Adequate Relief of Bloating, Post Treatment (subjects with dIBS; Week 13, RFX 550 2 w vs. PBO): Comparison of RFX 550 2 w vs. PBO p-value: 0.0142, odds ratio: 4.187
Adequate Relief of Bloating, Post Treatment: Failure (subjects with dIBS; Week 14): 20 (37.0%) n (%)
Adequate Relief of Bloating, Post Treatment: Success (subjects with dIBS; Week 14): 34 (63.0%) n (%)
odds ratio, Adequate Relief of Bloating, Post Treatment (subjects with dIBS; Week 14, RFX 550 2 w vs. PBO): Comparison of RFX 550 2 w vs. PBO p-value: 0.0121, odds ratio: 4.230
Adequate Relief of Bloating, Post Treatment: Failure (subjects with dIBS; Week 15): 23 (42.6%) n (%)
Adequate Relief of Bloating, Post Treatment: Success (subjects with dIBS; Week 15): 31 (57.4%) n (%)
odds ratio, Adequate Relief of Bloating, Post Treatment (subjects with dIBS; Week 15, RFX 550 2 w vs. PBO): Comparison of RFX 550 2 w vs. PBO p-value: 0.0391, odds ratio: 3.323
Adequate Relief of Bloating, Post Treatment: Failure (subjects with dIBS; Week 16): 22 (40.7%) n (%)
Adequate Relief of Bloating, Post Treatment: Success (subjects with dIBS; Week 16): 32 (59.3%) n (%)
odds ratio, Adequate Relief of Bloating, Post Treatment (subjects with dIBS; Week 16, RFX 550 2 w vs. PBO): Comparison of RFX 550 2 w vs. PBO p-value: 0.0212, odds ratio: 3.700
Treatment effect (Bloating) (subjects with dIBS; dIBS Type: aIBS): 31.4%*, 31.4%
Treatment effect (IBS Sx) (subjects with dIBS; dIBS Type: aIBS): 31.4%*, 31.4%
Treatment effect (Bloating) (subjects with dIBS; dIBS Type: dIBS only): 4.5%
Treatment effect (IBS Sx) (subjects with dIBS; dIBS Type: dIBS only): 6.3%
Patients with adequate relief of bloating (subjects with dIBS; [4]): 44%
Patients with adequate relief of global IBS symptoms (subjects with dIBS; [4]): 50%
Patients with adequate relief of bloating (subjects with dIBS; [5]): 47%
Patients with adequate relief of global IBS symptoms (subjects with dIBS; [5]): 56%
Systemic absorption [1]: negligible
